≈ marks a conversion by molar mass, not a printed value.
Experiments:
Type in all cases: cell-based
[1] = system: ATCC13883 strain (Klebsiella pneumoniae); experiment: Checkerboard antibacterial synergistic activity test with polymyxin E (FIC); design: key: FIC≤0.5 synergy; 0.5–1 additive; 1–2 indifferent; ≥2 antagonism; conditions: combined with polymyxin E
Summary of the method: (§1)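 FIC values come from a microdilution checkerboard crossing polymyxin E against the test compound in MH medium, with uninoculated blanks included. Incubation lasts 16 h at 37° C. Scoring: synergy at FIC ≤0.5, additivity between 0.5 and 1, indifference between 1 and 2, antagonism at 2 or above.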

[2] = system: ATCC19606 strain (Acinetobacter baumannii); experiment: as above; design: key: FIC≤0.5 synergy; 0.5–1 additive; 1–2 indifferent; ≥2 antagonism; conditions: combined with polymyxin E
Summary of the method: as §1

[3] = system: ATCC25922 strain (Escherichia coli); experiment: as above; design: key: FIC≤0.5 synergy; 0.5–1 additive; 1–2 indifferent; ≥2 antagonism; conditions: combined with polymyxin E
Summary of the method: as §1

[4] = system: ATCC9027 strain (Pseudomonas aeruginosa); experiment: as above; design: key: FIC≤0.5 synergy; 0.5–1 additive; 1–2 indifferent; ≥2 antagonism; conditions: combined with polymyxin E
Summary of the method: as §1

[5] = system: ATCC13883 strain (Klebsiella pneumoniae); experiment: Broth microdilution, antibacterial activity of the compound used alone; conditions: for MIC: read-out: Antibacterial activity of the compound of Formula I, ATCC13883
Description: (§2) The broth microdilution method was used to test the antibacterial effects of the compounds of the present invention against various Gram-negative bacterial strains when used alone.

[6] = system: ATCC19606 strain (Acinetobacter baumannii); experiment: as above; conditions: for MIC: read-out: Antibacterial activity of the compound of Formula I, ATCC19606
Description: as §2

[7] = system: ATCC25922 strain (Escherichia coli); experiment: as above; conditions: for MIC: read-out: Antibacterial activity of the compound of Formula I, ATCC25922
Description: as §2

[8] = system: ATCC9027 strain (Pseudomonas aeruginosa); experiment: as above; conditions: for MIC: read-out: Antibacterial activity of the compound of Formula I, ATCC9027
Description: as §2

SMILES | Synergistic activity (FIC value) ATCC13883 [1] | Synergistic activity (FIC value) ATCC19606 [2] | Synergistic activity (FIC value) ATCC25922 [3] | Synergistic activity (FIC value) ATCC9027 [4] | Antibacterial activity of the compound of Formula I, ATCC13883 [5] | Antibacterial activity of the compound of Formula I, ATCC19606 [6] | Antibacterial activity of the compound of Formula I, ATCC25922 [7] | Antibacterial activity of the compound of Formula I, ATCC9027 [8] | MIC [5] | MIC [6] | MIC [7] | MIC [8]
NC(N)=Nc1nc(-c2ccc(Oc3ccccc3)cc2)cs1 [Compound I-3] | 1.25 | 1.25 | 0.5 | 1.25 | 256 µg/mL | 256 µg/mL | 256 µg/mL | 256 µg/mL | – | – | – | –
Cc1sc(N=C(N)N)nc1-c1cccc2ccoc12 [Compound I-70] | 1.25 | 0.26 | 1.25 | 1.25 | 256 µg/mL | 256 µg/mL | 256 µg/mL | 256 µg/mL | – | – | – | –
NC(N)=Nc1nc(-c2cccc3cc(Cl)cc(Cl)c23)c(Br)s1 [Compound I-66] | 0.31 | 0.13 | 0.38 | 0.53 | 256 µg/mL | 256 µg/mL | 256 µg/mL | 256 µg/mL | – | – | – | –
Clc1sc(N=C2NCCCN2)nc1-c1ccccc1Oc1ccc(I)cc1I [Compound I-148] | 0.09 | 0.31 | 0.14 | 0.06 | 256 µg/mL | 256 µg/mL | 256 µg/mL | 256 µg/mL | – | – | – | –
Cc1ccc2c(-c3coc(N=C(N)N)n3)cccc2c1 [Compound I-59] | 0.33 | 0.15 | 0.39 | 0.62 | 256 µg/mL | 256 µg/mL | 256 µg/mL | 256 µg/mL | – | – | – | –
NC(N)=Nc1nc(-c2ccc(Cl)cc2)cs1 [Compound I-38] | 0.25 | 0.28 | 0.5 | 0.63 | 256 µg/mL | 256 µg/mL | 256 µg/mL | 256 µg/mL | – | – | – | –
NC(N)=Nc1nc(-c2ccc3ccccn23)cs1 [Compound I-122] | 0.56 | 0.56 | 0.38 | 0.75 | 256 µg/mL | 256 µg/mL | 256 µg/mL | 256 µg/mL | – | – | – | –
Cc1ccccc1Oc1cccc(-c2coc(N=C3NCCCN3)n2)c1 [Compound I-152] | 0.19 | 0.38 | 0.04 | 0.04 | 256 µg/mL | 256 µg/mL | 256 µg/mL | 256 µg/mL | – | – | – | –
CC(C)(C)c1cc(-c2csc(NC3=NCCCN3)n2)cc(C(C)(C)C)c1O [Compound I-163] | 0.19 | 0.38 | 0.04 | 0.04 | – | – | – | – | 128 µg/mL (≈ 331 µM) | 256 µg/mL (≈ 662 µM) | 128 µg/mL (≈ 331 µM) | 64 µg/mL (≈ 166 µM)
Cc1ccc(Oc2cccc(-c3csc(N=C4NCCCN4)n3)c2)c(C)c1 [Compound I-153] | 0.09 | 0.31 | 0.14 | 0.06 | 256 µg/mL | 256 µg/mL | 256 µg/mL | 256 µg/mL | – | – | – | –
NC(N)=Nc1nc(-c2ccccc2Oc2ccc(Cl)cc2Cl)cs1 [Compound I-85] | 0.19 | 0.04 | 0.26 | 0.52 | – | – | – | – | 256 µg/mL (≈ 675 µM) | 256 µg/mL (≈ 675 µM) | 256 µg/mL (≈ 675 µM) | 256 µg/mL (≈ 675 µM)
Clc1cc(Cl)cc(-c2csc(N=C3NCCCN3)n2)c1 [Compound I-187] | 0.31 | 0.25 | 0.56 | 0.5 | 128 µg/mL | 256 µg/mL | 128 µg/mL | 64 µg/mL | – | – | – | –
NC(N)=Nc1nc(-c2cccc3ccccc23)cs1 [Compound I-55] | 0.31 | 0.13 | 0.38 | 0.53 | 256 µg/mL | 256 µg/mL | 256 µg/mL | 256 µg/mL | – | – | – | –
NC(N)=Nc1nc(-c2cccc(Oc3ccc(N4CCOCC4)cc3)c2)cs1 [Compound I-105] | 1.25 | 1.25 | 1.25 | 0.51 | 256 µg/mL | 256 µg/mL | 256 µg/mL | 256 µg/mL | – | – | – | –
CSc1cc2c(C)cccn2c1-c1csc(N=C(N)N)n1 [Compound I-124] | 0.19 | 0.38 | 0.04 | 0.04 | 256 µg/mL | 256 µg/mL | 256 µg/mL | 256 µg/mL | – | – | – | –

Source: patent publication US20260250257A1, “ANTIBACTERIAL AND SYNERGISTIC ACTIVE COMPOUND AND USE THEREOF” (EAST CHINA UNIVERSITY OF SCIENCE AND TECHNOLOGY, priority 2023, published 2026)
